Assay results: the supplement of paper PMC11061612

Assays:
Experiment in all cases: Bliss excess, mean over the matrix (fraction); higher = more synergy
[1] = tested on: NCI-H2023 (Non-Small Cell Lung Carcinoma)
Summary of the method: (§1)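 After 24 hours at 37°C and 5% CO2 in 1536-well plates, cells in DMEM/F12 or RPMI plus 10% FBS received two-drug dose matrices for 72 hours. Viability came from CellTiter-Glo 2.0 luminescence and was scaled as inhibition, anchored at 0 by vehicle wells and at 1 by blank wells. Combination Emax is taken as the second-highest inhibition in the matrix, and Bliss excess as the observed combination effect less EA + EB − EA·EB, with EA and EB the single-agent effects.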

[2] = tested on: JJN-3 (Plasma Cell Myeloma)
Summary of the method: as §1

HT-144 (Melanoma) = tested on: HT-144 (Melanoma)
Summary of the method: as §1

[3] = tested on: NCI-H1435 (Non-Small Cell Lung Carcinoma)
Summary of the method: as §1

[4] = tested on: SW1463 (Colorectal Carcinoma)
Summary of the method: as §1

[5] = tested on: BC-1 (B-Cell Non-Hodgkin's Lymphoma)
Summary of the method: as §1

[6] = tested on: SCC90 (Head and Neck Carcinoma)
Summary of the method: as §1

[7] = tested on: SUP-HD1 (Hodgkin's Lymphoma)
Summary of the method: as §1

[8] = tested on: Daudi (Burkitt's Lymphoma)
Summary of the method: as §1

[9] = tested on: COR-L105 (Lung Adenocarcinoma)
Summary of the method: as §1

A375 (Melanoma) = tested on: A375 (Melanoma)
Summary of the method: as §1

[10] = tested on: HT-3 (Cervical Carcinoma)
Summary of the method: as §1

[11] = tested on: TK (B-Cell Non-Hodgkin's Lymphoma)
Summary of the method: as §1

MG-63 (Osteosarcoma) = tested on: MG-63 (Osteosarcoma)
Summary of the method: as §1

[12] = tested on: MRK-nu-1 (Breast Carcinoma)
Summary of the method: as §1

[13] = tested on: CAL-85-1 (Breast Carcinoma)
Summary of the method: as §1

[14] = tested on: NCI-H2009 (Lung Adenocarcinoma)
Summary of the method: as §1

[15] = tested on: OVKATE (Ovarian Carcinoma)
Summary of the method: as §1

[16] = tested on: NCI-H1975 (Lung Adenocarcinoma)
Summary of the method: as §1

[17] = tested on: IGROV-1 (Ovarian Carcinoma)
Summary of the method: as §1

SMILES	Bliss excess [1]	Bliss excess [2]	Bliss excess (HT-144 (Melanoma))	Bliss excess [3]	Bliss excess [4]	Bliss excess [5]	Bliss excess [6]	Bliss excess [7]	Bliss excess [8]	Bliss excess [9]	Bliss excess (A375 (Melanoma))	Bliss excess [10]	Bliss excess [11]	Bliss excess (MG-63 (Osteosarcoma))	Bliss excess [12]	Bliss excess [13]	Bliss excess [14]	Bliss excess [15]	Bliss excess [16]	Bliss excess [17]
Cc1cc2ncnn2cc1Nc1ncc2c(n1)n(C1CCOCC1)c(=O)n2C [AZD7648] + C=CCn1c(=O)c2cnc(Nc3ccc(N4CCN(C)CC4)cc3)nc2n1-c1cccc(C(C)(C)O)n1 [AZD1775] (first compound max 10 µM, partner max 1 µM)	0.027	-0.0726	0.0458	0.0816	-0.0327	0.004	0.0276	-0.0943	-0.0101	-0.0431	0.0217	0.0055	-0.0568	0.0269	0.0279	-0.0292	-0.0271	-0.001	-0.0107	-0.0431
Cc1cc2ncnn2cc1Nc1ncc2c(n1)n(C1CCOCC1)c(=O)n2C [AZD7648] + CCN(CCO)CCCOc1ccc2c(Nc3cc(CC(=O)Nc4cccc(F)c4)[nH]n3)ncnc2c1 [AZD2811] (first compound max 10 µM, 7x7, partner max 1 µM)	-0.0238	0.0202	0.0088	0.0409	-0.0035	0.035	0.0511	0.0506	0.0652	-0.0508	0.0251	0.0276	0.0132	0.0401	0.0245	-0.0195	0.0669	-0.0834	0.008	-0.115
Cc1cc2ncnn2cc1Nc1ncc2c(n1)n(C1CCOCC1)c(=O)n2C [AZD7648] + CN(C)CCCOc1ccc(-c2ccc3ncc4c(c3c2)n(C2CCOCC2)c(=O)n4C)cn1 [AZD0156] (first compound max 10 µM, 7x7, partner max 1 µM)	-0.0192	-0.0058	0.0013	0.0091	0.0037	0.0465	0.0055	-0.0306	0.0327	-0.0369	0.0165	0.0226	-0.0264	0.0397	0.0348	-0.0542	-0.0019	-0.0132	-0.0071	-0.0328
Cc1cc2ncnn2cc1Nc1ncc2c(n1)n(C1CCOCC1)c(=O)n2C [AZD7648] + C[C@@H]1COCCN1C2=NC(=NC(=C2)C3(CC3)[S@](=N)(=O)C)C4=C5C=CNC5=NC=C4 [AZD6738] (first compound max 10 µM, 7x7, partner max 10 µM)	0.0722	-0.0051	0.0349	0.0536	0.0087	-0.016	0.0385	-0.0375	0.0285	-0.0511	0.0301	0.0076	-0.0185	0.0557	0.0054	0.0307	0.0494	0.0232	0.015	-0.08
Cc1cc2ncnn2cc1Nc1ncc2c(n1)n(C1CCOCC1)c(=O)n2C [AZD7648] + O=C(c1cc(Cc2n[nH]c(=O)c3ccccc23)ccc1F)N1CCN(C(=O)C2CC2)CC1 [Olaparib] (first compound max 10 µM, 7x7, partner max 10 µM)	-0.0892	-0.008	-0.0519	-0.0366	-0.0417	0.0015	-0.0364	0.0862	-0.0336	-0.034	-0.0339	-0.0518	0.0001	0.0014	-0.0615	-0.057	-0.0372	-0.0688	0.0135	-0.0782
Cc1nc(Nc2ncc(C(=O)Nc3c(C)cccc3Cl)s2)cc(N2CCN(CCO)CC2)n1 [Dasatinib] + CC(=O)Nc1cccc(-n2c(=O)n(C3CC3)c(=O)c3c(Nc4ccc(I)cc4F)n(C)c(=O)c(C)c32)c1 [Trametinib] (first compound max 2 µM, 7x7, partner max 1 µM)	-0.0228	0.0148	-0.0825	0.0975	-0.0659	0.0858	-0.165	-0.0782	-0.0221	0.0567	0.0736	-0.0594	-0.0386	-0.0066	-0.0688	0.0959	0.0589	-0.0147	0.0302	-0.0554
COc1cc2ncnc(Nc3ccc(F)c(Cl)c3)c2cc1OCCCN1CCOCC1 [Gefitinib] + CC(C)n1c(=O)n(C)c2cnc3cc(F)c(-c4ccc(OCCCN5CCCCC5)nc4)cc3c21 [AZD1390] (first compound max 10 µM, 7x7, partner max 0.3 µM)	-0.0463	-0.0185	-0.0682	-0.0289	0.0109	-0.0279	-0.0582	-0.0683	-0.0688	-0.0374	-0.0544	-0.0456	-0.0495	-0.0772	0.0492	-0.0236	-0.0519	-0.0386	-0.0676	-0.0824
COc1cc2c(cc1OCCCCCOc1cc3c(cc1OC)C(=O)N1C=C(C)C[C@H]1C=N3)N=C[C@@H]1CC(C)=CN1C2=O [SG3199] + O=C(c1cc(Cc2n[nH]c(=O)c3ccccc23)ccc1F)N1CCN(C(=O)C2CC2)CC1 [Olaparib] (first compound max 0.001 µM, 7x7, partner max 10 µM)	-0.0562	0.0128	-0.0443	-0.0584	-0.0393	-0.0102	-0.0461	0.1	-0.0273	-0.0371	-0.0304	-0.0306	-0.0114	-0.0041	-0.0642	-0.0407	-0.0297	-0.0653	-0.0171	-0.0101
C[C@@H](c1ccc2nccn2c1)n1nnc2ncc(-c3cnn(C)c3)nc21 [Savolitinib] + CC1(C)CCC(CN2CCN(c3ccc(C(=O)NS(=O)(=O)c4ccc(NCC5CCOCC5)c([N+](=O)[O-])c4)c(Oc4cnc5[nH]ccc5c4)c3)CC2)=C(c2ccc(Cl)cc2)C1 [Venetoclax] (first compound max 1 µM, 7x7, partner max 1 µM)	-0.0161	-0.012	-0.0569	-0.0034	-0.0339	0.0031	-0.0192	0.034	-0.0988	-0.0423	-0.0463	-0.0486	-0.0258	-0.0157	0.0851	-0.0468	-0.041	-0.0495	-0.0329	-0.04
C[C@@H](c1ccc2nccn2c1)n1nnc2ncc(-c3cnn(C)c3)nc21 [Savolitinib] + Cc1c2c(nn1C)CSCc1cc(n(C)n1)CSc1cc(c3ccccc3c1)OCCCc1c(C(=O)O)n(C)c3c-2c(Cl)ccc13 [AZD5991] (first compound max 1 µM, 7x7, partner max 1 µM)	-0.0323	-0.0384	-0.054	-0.0263	-0.0109	-0.0076	-0.0222	-0.05	-0.0126	-0.0086	-0.0271	-0.0255	-0.0262	0.0065	0.0344	-0.0286	-0.0063	-0.0434	-0.0275	-0.0303
